In patent US20230312587A1, “PTERIDINONE COMPOUNDS AND USES THEREOF” (Vertex Pharmaceutical Incorporated, priority 2018, published 2023):
pEC50, pIC50: −log10 of the molar value. Read-outs that look alike come from different tables or passages of the source.

What was measured:
[1] = target: HEK293 membranes over-expressing WFS-1 (Homo sapiens (Human), UniProt O76024); test: Radioligand displacement assay (tritiated Compound 136 probe); format: binding; conditions: displacement of tritiated Compound 136
HEK293 membranes over-expressing WFS-1, sequence (O76024 whole entry): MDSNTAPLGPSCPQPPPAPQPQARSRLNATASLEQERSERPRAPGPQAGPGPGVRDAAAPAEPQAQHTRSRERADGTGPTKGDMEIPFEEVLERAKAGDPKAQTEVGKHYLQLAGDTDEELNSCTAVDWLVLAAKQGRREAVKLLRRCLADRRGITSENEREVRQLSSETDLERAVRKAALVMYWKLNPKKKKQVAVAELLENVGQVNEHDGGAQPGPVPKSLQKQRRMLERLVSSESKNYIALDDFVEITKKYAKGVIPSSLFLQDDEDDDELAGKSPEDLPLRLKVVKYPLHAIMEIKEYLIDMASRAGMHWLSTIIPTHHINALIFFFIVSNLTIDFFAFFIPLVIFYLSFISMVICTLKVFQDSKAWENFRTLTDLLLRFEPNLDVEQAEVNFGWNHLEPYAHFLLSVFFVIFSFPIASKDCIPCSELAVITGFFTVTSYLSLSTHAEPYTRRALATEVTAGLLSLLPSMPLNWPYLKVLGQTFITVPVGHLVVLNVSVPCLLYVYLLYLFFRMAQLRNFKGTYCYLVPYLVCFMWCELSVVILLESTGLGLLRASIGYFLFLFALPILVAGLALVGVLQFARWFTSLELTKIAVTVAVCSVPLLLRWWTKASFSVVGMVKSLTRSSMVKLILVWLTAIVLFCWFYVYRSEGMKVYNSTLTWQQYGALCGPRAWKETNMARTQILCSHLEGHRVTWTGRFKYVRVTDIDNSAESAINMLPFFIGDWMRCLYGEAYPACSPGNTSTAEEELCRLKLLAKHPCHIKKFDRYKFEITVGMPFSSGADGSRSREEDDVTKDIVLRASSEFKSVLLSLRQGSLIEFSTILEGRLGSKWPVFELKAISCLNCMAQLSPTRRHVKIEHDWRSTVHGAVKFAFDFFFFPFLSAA
Method: Cell pellets were re-suspended in 15 times packed cellular volume in 4° C. hypotonic lysis buffer (10 mM HEPES, pH 7.5 containing 1×Protease inhibitor, 0.5 mM EDTA and 2 mM DTT). Re-suspended cells were homogenized with 6-8 strokes in a dounce homogenizer kept on ice. Lysates were centrifuged at 500×G for 15 minutes at 4° C. without brake to decelerate rotor. Following centrifugation, remove the supernatant to a fresh tube and place on ice (Supernatant 1). Repeat the above steps on the lysed cell pellet using 0.5 the original volume of hypotonic lysis buffer and remove the 500× G supernatant (Supernatant 2) and combine with Supernatant 1. Transfer the combined supernatants to a 45-Ti ultracentrifuge tube and centrifuge at 100,000× G for 30 minutes. Following ultracentrifugation, carefully remove the supernatant and discard. Resuspend the 100,000× G pellet in cold resuspension buffer (10 mM HEPES, pH 7.5, 300 mM NaCl containing 1× Protease inhibitor, 1× EDTA and 2 mM DTT). Centrifuge sample at 500× G for 10 minutes with no brake and remove any cloudy, flocculent material. Resuspend pellet in resuspension buffer to approximately 2 mg/mL of protein concentration for use in radioligand binding assay and immunoblotting.
The binding affinities of compounds were determined by measuring the competitive displacement of a tritiated Compound 136 probe from purified HEK293 membranes over-expressing WFS-1. The data for the radioligand displacement assay are summarized in Table 47: A<0.06 μM; 0.06 μM≤B<0.6 μM; 0.6 μM≤C<3.0 μM; D≥3.0 μM.
The probe Kd was determined by titrating tritiated probe under the standard assay conditions plus and minus excess unlabeled probe and fitting the resulting data to a “One site—Total and nonspecific binding” model in Graphpad Prism, version 6.0, San Diego, CA, US. Initially, 0.25 μl of compound dissolved in DMSO at varying concentrations was dispensed to a 384 well plate. Membrane and probe were both prepared at 2× their final concentration in 1× assay buffer as described above. 25 μL of membrane was added to the wells and incubated for 10 minutes. 25 μL of diluted probe was then added to the wells. The assay was incubated for 90 minutes at room temperature. The entire assay volume was then transferred to Millipore GF/B 384-well plates pretreated with 15 μL 0.5% PEI. The filter plates were washed 3× with 75 μL 25 mM TRIS, ph7.5, 0.1% BSA and then dried overnight. Following addition of 45 μL UltimaGold scintillant, the samples were counted in a Perkin Elmer Topcount. The radioactivity remaining is a measure of bound probe. From the bound probe vs concentration of compound titration curve, the IC50 is determined by fitting the data to a standard 3 parameter IC50 model using either Graphpad Prism, version 6.0, San Diego, CA, US, or using GeneData Analyzer, Basel, Switzerland.

[2] = test system: β-catenin-TCF-mediated reporter transcription activity in Colo 205 cells; test: Colo 205 reporter assay (TCF/LEF luciferase); format: cell-based; conditions: Homo sapiens, COLO 205, 5 h, Colo 205 TCF/LEF luciferase reporter, read-out: TCF reporter Colo205 IC50
In short: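 Luciferase signal from a TCF/LEF-driven reporter, stably integrated in Colo 205 colon cancer cells, was measured 5 h after compound addition.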

[3] = test system: Colo-205 cells; test: Calcium flux assay (FLIPR Calcium 5); format: cell-based; conditions: Homo sapiens, COLO 205, 0.6 h, FLIPR Calcium 5, measured over 36 minutes
Method: Compounds described herein induced ER stress by causing intracellular calcium flux. Calcium flux was measured in Colo-205 cells using the FLTPR® Calcium 5 Assay Kit according to manufacter's protocol (Molecular Devices, Cat. #R8186) on a FLIPR3 system (Molecular Devices). Calcium flux is measured over 36 minutes. The Colo-205 calcium flux assay data are summarized in Table 47: A<0.6 μM; 0.6 μM≤B<2.0 μM; 2.0 μM≤C<10.0 μM; D≥10.0 μM.

[4] = five hours after addition of compound

pIC50 [1]	pIC50 [2, 4]	pEC50 [3]	pIC50 ([2]; R-isomer at C2 (corresponding to C2 S-isomer), 5 h)	SMILES
≤ 5.52	≤ 5.30	≤ 5.00	–	Cc1nc(N[C@@H](C)c2cnn(Cc3ccc(C(F)(F)F)nc3)c2)nc2c1NC(=O)[C@H](C)N2C [Compound 216, (7S)-4,7,8-Trimethyl-2-(((S)-1-(1-((6-(trifluoromethyl)pyridin-3-yl)methyl)-1H-pyrazol-4-yl)ethyl)amino)-7,8-dihydropteridin-6(5H)-one]
> 7.22	> 6.52	> 6.22	–	CC[C@H]1C(=O)Nc2c(C)nc(N[C@H]3C[C@H](Oc4ccc(C(F)(F)F)nc4)C3)nc2N1C [Compound 686, (S)-7-ethyl-4,8-dimethyl-2-((trans-3-((6-(trifluoromethyl)pyridin-3-yl)oxy)cyclobutyl)amino)-7,8-dihydropteridin-6(5H)-one]
> 7.22	> 6.52	5.70 to 6.22	–	Cc1nc(N[C@H]2C[C@@H](Nc3ccc(C#N)cn3)C2)nc2c1NC(=O)[C@H](C(C)C)N2C [Compound 716, 6-((cis-3-(((S)-7-isopropyl-4,8-dimethyl-6-oxo-5,6,7,8-tetrahydropteridin-2-yl)amino)cyclobutyl)amino)nicotinonitrile]
6.22 to 7.22	5.30 to 6.00	5.00 to 5.70	–	Cc1nc(N[C@H]2C[C@@H](Nc3ncc(C#N)cn3)C2)nc2c1NC(=O)[C@H](C(C)C)N2C [Compound 717, 2-((cis-3-(((S)-7-isopropyl-4,8-dimethyl-6-oxo-5,6,7,8-tetrahydropteridin-2-yl)amino)cyclobutyl)amino)pyrimidine-5-carbonitrile]
6.22 to 7.22	> 6.52	–	–	Cc1nc(N[C@H]2C[C@H](Oc3cc(F)c(F)c(F)c3)C2)nc2c1NC(=O)[C@H](CO)N2C [Compound 677, (S)-7-(hydroxymethyl)-4,8-dimethyl-2-((trans-3-(3,4,5-trifluorophenoxy)cyclobutyl)amino)-7,8-dihydropteridin-6(5H)-one]
> 7.22	> 6.52	> 6.22	–	Cc1nc(N[C@H]2C[C@@H](CNc3cnc(C(F)(F)F)cn3)C2)nc2c1NC(=O)[C@H](C(C)C)N2C [Compound 711, (S)-7-isopropyl-4,8-dimethyl-2-((cis-3-(((5-(trifluoromethyl)pyrazin-2-yl)amino)methyl)cyclobutyl)amino)-7,8-dihydropteridin-6(5H)-one]
> 7.22	> 6.52	> 6.22	–	CO[C@H](C)[C@H]1C(=O)Nc2c(C)nc(N[C@H]3C[C@H](Oc4ccc(C(F)(F)F)nc4)C3)nc2N1C [Compound 684, (S)-7-((R)-1-methoxyethyl)-4,8-dimethyl-2-((trans-3-((6-(trifluoromethyl)pyridin-3-yl)oxy)cyclobutyl)amino)-7,8-dihydropteridin-6(5H)-one]
> 7.22	> 6.52	> 6.22	–	Cc1nc(N[C@H]2C[C@H](Oc3ccc(C(F)(F)F)nc3)C2)nc2c1NC(=O)[C@H](C(C)C)N2C [Compound 685, (S)-7-isopropyl-4,8-dimethyl-2-((trans-3-((6-(trifluoromethyl)pyridin-3-yl)oxy)cyclobutyl)amino)-7,8-dihydropteridin-6(5H)-one]
–	6.00 to 6.52	–	–	Cc1nc(N[C@H]2C[C@@H](Cn3cc(F)cn3)C2)nc2c1NC(=O)[C@H](C)N2C [Compound 279, (7S)-2-((cis-3-((4-fluoro-1H-pyrazol-1-yl)methyl)cyclobutyl)amino)-4,7,8-trimethyl-7,8-dihydropteridin-6(5H)-one]
–	≤ 5.30	–	–	Cc1nc(NCc2cnn(C3CCNCC3)c2)nc2c1NC(=O)[C@H](C)N2C [Compound 99, (7S)-4,7,8-Trimethyl-2-(((1-(piperidin-4-yl)-1H-pyrazol-4-yl)methyl)amino)-7,8-dihydropteridin-6(5H)-one]
–	5.30 to 6.00	–	–	Cc1nc(NC2COC(Cn3nccc3C(F)(F)F)C2)nc2c1NC(=O)[C@H](C)N2C (stereo partly drawn) [Compound 306, (7S)-4,7,8-trimethyl-2-((cis-5-((5-(trifluoromethyl)-1H-pyrazol-1-yl)methyl)-tetrahydrofuran-3-yl)amino)-7,8-dihydropteridin-6(5H)-one]
–	5.30 to 6.00	–	–	Cc1nc(NC2CN(C(=O)c3cn(C)nc3C(F)(F)F)C2)nc2c1NC(=O)[C@H](C(C)C)N2C [Compound 609, (S)-7-isopropyl-4,8-dimethyl-2-((1-(1-methyl-3-(trifluoromethyl)-1H-pyrazole-4-carbonyl)azetidin-3-yl)amino)-7,8-dihydropteridin-6(5H)-one]
–	–	–	≤ 5.30	Cc1nc(NCc2cnn(Cc3ccnc(C#N)c3)c2)nc2c1NC(=O)[C@@H](C)N2C [Compound I-1649]
–	> 6.52	–	–	Cc1nc(NC2CN(C(=O)Cc3cc(F)cc(F)c3)C2)nc2c1NC(=O)[C@H](C(C)C)N2C [Compound 629, (S)-2-((1-(2-(3,5-difluorophenyl)acetyl)azetidin-3-yl)amino)-7-isopropyl-4,8-dimethyl-7,8-dihydropteridin-6(5H)-one]

SMILES	pIC50 [1]	pIC50 [2, 4]	pEC50 [3]	pIC50 ([2]; R-isomer at C2 (corresponding to C2 S-isomer), 5 h)
Cc1nc(N[C@H]2C[C@@H](Cn3nccc3C(F)(F)F)C2)nc2c1NC(=O)[C@H](COC(C)(C)C)N2C [Compound 723, (S)-7-(tert-butoxymethyl)-4,8-dimethyl-2-((cis-3-((5-(trifluoromethyl)-1H-pyrazol-1-yl)methyl)cyclobutyl)amino)-7,8-dihydropteridin-6(5H)-one]	6.22 to 7.22	> 6.52	5.70 to 6.22	–
